Consider three compounds from PMC12508460 (Nature Communications, 2025).

Each structure is given as a SMILES string. Substitutions are numbered along the chain they refer to. pEC50: −log10 of the molar value.

One assay addresses T1, WT DP1 (Homo sapiens, UniProt Q13258).
T1 sequence (Q13258 1-359): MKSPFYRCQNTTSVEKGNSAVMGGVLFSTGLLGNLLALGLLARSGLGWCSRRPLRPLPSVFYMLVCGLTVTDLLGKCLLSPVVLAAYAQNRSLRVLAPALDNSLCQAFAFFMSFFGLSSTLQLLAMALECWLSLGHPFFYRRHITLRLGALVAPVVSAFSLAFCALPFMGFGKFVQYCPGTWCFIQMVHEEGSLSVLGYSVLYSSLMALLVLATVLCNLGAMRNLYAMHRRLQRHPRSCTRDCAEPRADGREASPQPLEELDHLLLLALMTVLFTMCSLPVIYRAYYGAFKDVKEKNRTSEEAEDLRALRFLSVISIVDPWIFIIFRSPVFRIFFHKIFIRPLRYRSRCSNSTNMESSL
In words: Cyclic AMP GloSensor assay.

The target in another assay is T2, DP1 R327^8.47A (Homo sapiens, UniProt Q13258, R327A).
T2 sequence (Q13258 1-359 R327A): T1 sequence (Q13258 1-359) with R327A
In words: ONE-GO BRET Gs protein activation assay. The class given is cell-based. In general terms: BRET reads energy transfer from a luciferase to a nearby fluorophore.

Take `Cc1cc(OC[C@@H]2CN(C)c3ccccc3O2)cc(C)c1C(=O)Nc1ccc(Cl)c(C2(C(=O)O)CC2)c1` [ONO3030297, (S)-1-(2-chloro-5-(2,6-dimethyl-4-((4-methyl-3,4-dihydro-2H-benzo[b][1,4]oxazin-2-yl)methoxy)benzamido)phenyl)cyclopropane-1-carboxylic acid]: on WT DP1, the pEC50 (in general, the negative decadic logarithm of the EC50, by convention in mol/L) is 8.89 and the “Effect on basal activity of DP1 in cAMP accumulation assays” value is given as “fully inhibit the basal activity”.
For `Cc1cc(OC[C@@H]2CN(C)c3ccccc3O2)cc(C)c1C(=O)Nc1ccc(Cl)c(CC(=O)O)c1` [ONO2550289, (S)-2-(2-chloro-5-(2,6-dimethyl-4-((4-methyl-3,4-dihydro-2H-benzo[b][1,4]oxazin-2-yl)methoxy)benzamido)phenyl)acetic acid], in that order: 8.96 and “fully inhibit the basal activity”.
Regarding `CCCCC[C@H](O)/C=C/[C@H]1C(=O)C[C@H](O)[C@@H]1C/C=C\CCCC(=O)O` [PGD2, Prostaglandin D2], on DP1 R327^8.47A, the “Reduction of the potency of PGD2 by the R327^8.47A mutation” value is “over 70 fold”. The same compound gave a pEC50 at WT DP1 of 8.21.
